Target: T1, recombinant human serotonin receptor 5-HT2A (Homo sapiens, UniProt P28223)
T1 construct: expressed in transfected cells; method B: loaded with Ca2+ dye
Test: 5-HT2A antagonist Ca2+ assay in CHO-K1 cells (method A aequorin luminescence / method B FLIPR fluorescence)
Format: cell-based
Conditions: antagonist mode vs EC80 of reference agonist, method A or B, read-out: 5HT2A IC50
Source text: The methods utilized to assess the inhibitory activity of compounds on recombinant human serotonin receptor 5-HT2A was based upon previously published approaches [Jerman J C, Brough S J, Gager T, Wood M, Coldwell M C, Smart D, Middlemiss D N. Pharmacological characterisation of human 5-HT2 receptor subtypes. European Journal of Pharmacology 2001 Feb. 23; 414(1):23-30; Le Poul E, Hisada S, Mizuguchi Y, Dupriez V J, Burgeon E, Detheux M. Adaptation of aequorin functional assay to high throughput screening. J Biomolecular Screening 2002 February; 7(1):57-65.] The 5-HT2A receptor signals through Gq-phospholipase signaling cascade, which leads to a transient increase in free intracellular […] concentration. Both 5-HT2A assay methods rely upon monitoring these changes in Ca^2+ concentration.
In method A [Le Poul E, Hisada S, Mizuguchi Y, Dupriez V J, Burgeon E, Detheux M. (2002)], CHO-K1 cells engineered to stably co-express both recombinant human 5-HT2A and mitochondrial apoaequorin are used. […] For agonist testing, 50 microliters of cell suspension is mixed with 50 microliters of a solution containing test compound or reference agonist in a 96-well standard geometry microtiter plate. The resulting emission of light was recorded using a Hamamatsu Functional Drug Screening System 6000 (FDSS 6000) luminometer. For antagonist testing, 100 microliters of the solution of reference agonist (to yield an agonist concentration, EC80, sufficient to cause the cells to generate an 80% maximal luminescence response in the absence of any antagonist) is injected into the mix of cells and test compound, 15 minutes after the first injection. The resulting emission of light is recorded using Hamamatsu FDSS 6000 luminometer. IC50 values are calculated (from compound concentration dependent inhibition of agonist-induced 5-HT2A-dependent light emission) by non-linear least squares regression of the data (percent inhibition) onto equation (1) above.
In method B [Jerman J C, Brough S J, Gager T, Wood M, Coldwell M C, Smart D, Middlemiss D N. (2001)], CHO-K1 cells which had been engineered to stably co-express recombinant human 5-HT2A are used in assay done similarly to method A. In method B, the cells are loaded with a fluorogenic Ca^2+ indicator dye by pre-incubation. Addition of the reference agonist serotonin causes a transient increase in fluorescence in a suspension of the loaded cells, which can be detected using the Molecular Devices fluorometric imaging plate reader (FLIPR), a high-throughput platform for 96-well cell-based assays. Addition of test compounds that are 5-HT2A antagonists, prior to the addition of the agonist (to yield an agonist concentration, EC80, sufficient to cause the cells to generate an 80% maximal fluorescence response in the absence of any antagonist), reduces the amount of fluorescence detected by the FLIPR upon agonist addition. IC50 values are calculated (from compound concentration dependent inhibition of agonist-induced 5-HT2A-dependent fluorescence) by non-linear least squares regression of the data (percent inhibition) onto equation (1) above.

T1 sequence (P28223 whole entry): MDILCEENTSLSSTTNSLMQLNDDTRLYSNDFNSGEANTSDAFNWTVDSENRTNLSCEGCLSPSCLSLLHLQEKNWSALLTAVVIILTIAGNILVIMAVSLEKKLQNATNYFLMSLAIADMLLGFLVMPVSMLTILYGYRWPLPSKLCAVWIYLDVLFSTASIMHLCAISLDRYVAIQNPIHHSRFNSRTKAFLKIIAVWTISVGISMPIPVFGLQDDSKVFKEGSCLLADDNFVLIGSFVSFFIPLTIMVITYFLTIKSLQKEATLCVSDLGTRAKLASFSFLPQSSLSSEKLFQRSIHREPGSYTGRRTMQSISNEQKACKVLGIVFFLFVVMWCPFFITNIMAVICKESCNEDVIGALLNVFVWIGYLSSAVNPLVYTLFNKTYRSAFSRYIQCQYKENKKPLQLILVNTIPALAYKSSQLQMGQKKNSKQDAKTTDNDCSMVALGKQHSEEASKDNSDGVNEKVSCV

Compound	IC50
OC(CO[C@H]1CCc2ccccc21)CN1CC[C@@H](Oc2cccc(F)c2)C1 (stereo partly drawn) [Example 34, 1-(((S)-2,3-dihydro-1H-inden-1-yl)oxy)-3-((R)-3-(3-fluorophenoxy)pyrrolidin-1-yl)propan-2-ol]	4.66 µM
OC(CO[C@H]1CCc2ccccc21)CN1CC[C@H](Oc2cccc(F)c2)C1 (stereo partly drawn) [Example 35, 1-(((S)-2,3-dihydro-1H-inden-1-yl)oxy)-3-((S)-3-(3-fluorophenoxy)pyrrolidin-1-yl)propan-2-ol]	7.13 µM
OC(CO[C@@H]1CCc2ccccc21)CN1CC[C@H](Oc2cccc(F)c2)C1 (stereo partly drawn) [Example 37, 1-(((R)-2,3-dihydro-1H-inden-1-yl)oxy)-3-((S)-3-(3-fluorophenoxy)pyrrolidin-1-yl)propan-2-ol]	9.01 µM
COc1cccc(O[C@@H]2CCN(CC(O)CO[C@H]3CCc4ccccc43)C2)c1 (stereo partly drawn) [Example 38, 1-(((S)-2,3-dihydro-1H-inden-1-yl)oxy)-3-((R)-3-(3-methoxyphenoxy)pyrrolidin-1-yl)propan-2-ol]	3.17 µM
COc1cccc(O[C@H]2CCN(CC(O)CO[C@H]3CCc4ccccc43)C2)c1 (stereo partly drawn) [Example 39, 1-(((S)-2,3-dihydro-1H-inden-1-yl)oxy)-3-((S)-3-(3-methoxyphenoxy)pyrrolidin-1-yl)propan-2-ol]	4.3 µM
COc1cccc(O[C@@H]2CCN(CC(O)CO[C@@H]3CCc4ccccc43)C2)c1 (stereo partly drawn) [Example 40, 1-(((R)-2,3-dihydro-1H-inden-1-yl)oxy)-3-((R)-3-(3-methoxyphenoxy)pyrrolidin-1-yl)propan-2-ol]	1.6 µM
COc1cccc(O[C@H]2CCN(CC(O)CO[C@@H]3CCc4ccccc43)C2)c1 (stereo partly drawn) [Example 41, 1-(((R)-2,3-dihydro-1H-inden-1-yl)oxy)-3-((S)-3-(3-methoxyphenoxy)pyrrolidin-1-yl)propan-2-ol]	7.13 µM
OC(CO[C@H]1CCc2ccccc21)CN1CC[C@H](Oc2ccc(F)cc2)C1 (stereo partly drawn) [Example 43, 1-(((S)-2,3-dihydro-1H-inden-1-yl)oxy)-3-((S)-3-(4-fluorophenoxy)pyrrolidin-1-yl)propan-2-ol]	2.08 µM
OC(CO[C@H]1CCCc2ccccc21)CN1CC[C@@H](Oc2ccc(F)cc2)C1 (stereo partly drawn) [Example 48, 1-((R)-3-(4-fluorophenoxy)pyrrolidin-1-yl)-3-(((S)-1,2,3,4-tetrahydronaphthalen-1-yl)oxy)propan-2-ol]	2.22 µM
OC(CO[C@H]1CCCc2ccccc21)CN1CC[C@H](Oc2ccc(F)cc2)C1 (stereo partly drawn) [Example 49, 1-((S)-3-(4-fluorophenoxy)pyrrolidin-1-yl)-3-(((S)-1,2,3,4-tetrahydronaphthalen-1-yl)oxy)propan-2-ol]	2.55 µM
OC(CO[C@@H]1CCCc2ccccc21)CN1CC[C@H](Oc2ccc(F)cc2)C1 (stereo partly drawn) [Example 51, 1-((S)-3-(4-fluorophenoxy)pyrrolidin-1-yl)-3-(((R)-1,2,3,4-tetrahydronaphthalen-1-yl)oxy)propan-2-ol]	0.49 µM
Cc1cccc(N2CCN(CC3(O)CCOc4ccccc43)CC2)c1C (stereo not shown) [Example 58, 4-((4-(2,3-dimethylphenyl)piperazin-1-yl)methyl)chroman-4-ol]	0.49 µM
Cc1cccc(N2CCN(CC3CCOc4ccccc43)CC2)c1C (stereo not shown) [Example 59, 1-(chroman-4-ylmethyl)-4-(2,3-dimethylphenyl)piperazine]	0.8 µM
CC1(OCC(O)CN2CCN(c3ccccc3)CC2)COc2ccccc21 (stereo not shown) [Example 79, 1-((3-methyl-2,3-dihydrobenzofuran-3-yl)oxy)-3-(4-phenylpiperazin-1-yl)propan-2-ol]	0.36 µM
O[C@@H](CO[C@@H]1CCCc2ccccc21)CN1CCN(Cc2ccccc2)CC1 [Example 84, (R)-1-(4-benzylpiperazin-1-yl)-3-(((R)-1,2,3,4-tetrahydronaphthalen-1-yl)oxy)propan-2-ol]	> 16.7 µM
O[C@H](CO[C@@H]1CCCc2ccccc21)CN1CCN(Cc2ccccc2)CC1 [Example 86, (S)-1-(4-benzylpiperazin-1-yl)-3-(((R)-1,2,3,4-tetrahydronaphthalen-1-yl)oxy)propan-2-ol]	> 16.7 µM
COc1ccccc1OC1CCN(CC2(C)CCc3ccccc32)CC1 (stereo not shown) [Example 96, 4-(2-methoxyphenoxy)-1-((1-methyl-2,3-dihydro-1H-inden-1-yl)methyl)piperidine]	> 10 µM

Compound	IC50
COc1ccccc1OC1CCN(CC2CCc3cc(C#N)ccc32)CC1 (stereo not shown) [Example 99, 1-((4-(2-methoxyphenoxy)piperidin-1-yl)methyl)-2,3-dihydro-1H-indene-5-carbonitrile]	0.45 µM
COc1ccccc1OC1CCN(CC2CCc3ccccc32)CC1 (stereo not shown) [Example 105, 1-((2,3-dihydro-1H-inden-1-yl)methyl)-4-(2-methoxyphenoxy)piperidine]	0.43 µM
COc1ccc2c(c1)C(CN1CCC(Oc3cccc(C(N)=O)c3)CC1)CC2 (stereo not shown) [Example 108, 3-((1-((6-methoxy-2,3-dihydro-1H-inden-1-yl)methyl)piperidin-4-yl)oxy)benzamide]	0.74 µM
COc1ccc2c(c1)C(CN1CCC(Oc3cccnc3)CC1)CC2 (stereo not shown) [Example 109, 3-((1-((6-methoxy-2,3-dihydro-1H-inden-1-yl)methyl)piperidin-4-yl)oxy)pyridine]	1.92 µM
COc1ccc2c(c1)C(CN1CCC(Oc3cccc(C#N)c3)CC1)CC2 (stereo not shown) [Example 110, 3-((1-((6-methoxy-2,3-dihydro-1H-inden-1-yl)methyl)piperidin-4-yl)oxy)benzonitrile]	4.04 µM
COCc1cccc(OC2CCN(CC3CCc4ccc(OC)cc43)CC2)c1 (stereo not shown) [Example 111, 1-((6-methoxy-2,3-dihydro-1H-inden-1-yl)methyl)-4-(3-(methoxymethyl)phenoxy)piperidine]	0.21 µM
Fc1cccc2c1C(CN1CCC(Oc3ccncc3)CC1)CC2 (stereo not shown) [Example 118, 4-((1-((7-fluoro-2,3-dihydro-1H-inden-1-yl)methyl)piperidin-4-yl)oxy)pyridine]	1.78 µM
COc1ccc2c(c1)C(CN1CCC(Oc3ccc(C#N)cc3)CC1)CC2 (stereo not shown) [Example 120, 4-((1-((6-methoxy-2,3-dihydro-1H-inden-1-yl)methyl)piperidin-4-yl)oxy)benzonitrile]	0.44 µM
COc1ccc2c(c1)C(CN1CCC(Oc3cncnc3)CC1)CC2 (stereo not shown) [Example 126, 5-((1-((6-methoxy-2,3-dihydro-1H-inden-1-yl)methyl)piperidin-4-yl)oxy)pyrimidine]	> 3.16 µM
COCc1ccc(OC2CCN(CC3CCc4ncccc43)CC2)cc1 (stereo not shown) [Example 127, 5-((4-(4-(methoxymethyl)phenoxy)piperidin-1-yl)methyl)-6,7-dihydro-5H-cyclopenta[b]pyridine]	> 12 µM
COc1ccccc1OC1CCN(CC2COc3ccccc32)CC1 (stereo not shown) [Example 130, 1-((2,3-dihydrobenzofuran-3-yl)methyl)-4-(2-methoxyphenoxy)piperidine]	> 10 µM
Fc1ccccc1OC1CCN(CC2COc3ccccc32)CC1 (stereo not shown) [Example 132, 1-((2,3-dihydrobenzofuran-3-yl)methyl)-4-(2-fluorophenoxy)piperidine]	0.04 µM
CC1(C)Oc2ccccc2C1CN1CCC(Oc2ccccc2F)CC1 (stereo not shown) [Example 133, 1-((2,2-dimethyl-2,3-dihydrobenzofuran-3-yl)methyl)-4-(2-fluorophenoxy)piperidine]	0.29 µM
CC1(C)Oc2ccccc2C1CN1CCC(Oc2ccc(F)cc2)CC1 (stereo not shown) [Example 135, 1-((2,2-dimethyl-2,3-dihydrobenzofuran-3-yl)methyl)-4-(4-fluorophenoxy)piperidine]	0.12 µM
COc1ccccc1O[C@H]1CCN(CC2Cc3ccccc3C2)[C@@H](C)C1 [Example 143, (2S,4S)-1-((2,3-dihydro-1H-inden-2-yl)methyl)-4-(2-methoxyphenoxy)-2-methylpiperidine]	0.08 µM
COc1ccccc1O[C@@H]1CCN(CC2Cc3ccccc3C2)C[C@H]1C [Example 145, (3R,4R)-1-((2,3-dihydro-1H-inden-2-yl)methyl)-4-(2-methoxyphenoxy)-3-methylpiperidine]	0.01 µM
COc1ccccc1OC1CCN(CC2(C)Cc3ccccc3C2)CC1 [Example 146, 4-(2-methoxyphenoxy)-1-((2-methyl-2,3-dihydro-1H-inden-2-yl)methyl)piperidine]	> 1 µM
